Experimental data published in patent US10391080B2, “Ketorolac for the treatment of cancer” (Cipla Limited, priority 2016, dated 2019).
Like-named read-outs stand apart in the source and are kept apart here.

Columns and labels:
786-O = assay: In vitro 3D assay, clonogenic assay (colony formation in semi-solid medium); format: cell-based; conditions: Homo sapiens, 786-0, 3D colony formation, continuous exposure 8 to 13 days
Method: (§1) Ketorolac was characterized for its ability to inhibit anchorage independent growth and ex vivo colony formation of tumor cells in semi-solid medium. The compound was tested against 10 human tumor xenograft-derived cell suspensions or tumor cell lines of renal cancer.
(§2) Cell lines were routinely passaged one or twice weekly. […] The percentage of viable cells was determined in a Neubauer-hemocytometer using trypan blue exclusion.
(§3) Tumor xenografts (patient-derived, as well as cell line-derived xenografts) were passaged as subcutaneous xenografts in NMRI nu/nu mice. At a tumor volume of 400-1000 mm^3 tumor-bearing mice were sacrificed and tumors were collected under sterile conditions without delay according to the relevant Oncotest SOPs and the relevant animal welfare guidelines published by the FELASA and the GV-SOLAS. […] The percentage of viable cells was determined in a Neubauer-hemocytometer using trypan blue exclusion. Aliquots of the cells were frozen down, and stored in liquid nitrogen. On each day of an experiment, a frozen aliquot of tumor cells was thawed and used for preparation of assay plates.
(§4) The clonogenic assay was carried out in a 96 well plate format using ultra low attachment plates. […] Every plate included six untreated control wells and drug-treated groups in duplicate at 9 concentrations. […] At the time of maximum colony formation, counts were performed with an automatic image analysis system (Celllnsight NXT, Thermo Scientific). 48 hours prior to evaluation, vital colonies were stained with a sterile aqueous solution of 2-(4-iodophenyl)-3-(4-nitrophenyl)-5-phenyltetrazolium chloride (1 mg/ml, 100 μl/well).

A-498 cells = assay: as above; format: cell-based; conditions: Homo sapiens, A498, A-498, 3D colony formation, continuous exposure 8 to 13 days
Method: as §1, §2, §3, §4

ACHN = assay: as above; format: cell-based; conditions: Homo sapiens, 3D colony formation, continuous exposure 8 to 13 days
Method: as §1, §2, §3, §4

Caki-1 = assay: as above; format: cell-based; conditions: Homo sapiens, Caki-1, 3D colony formation, continuous exposure 8 to 13 days
Method: as §1, §2, §3, §4

RXF 1183L = assay: as above; format: cell-based; conditions: Homo sapiens, 3D colony formation, continuous exposure 8 to 13 days
Method: as §1, §2, §3, §4

RXF 1220L = assay: as above; format: cell-based; conditions: Homo sapiens, 3D colony formation, continuous exposure 8 to 13 days
Method: as §1, §2, §3, §4

RXF 1781L = assay: as above; format: cell-based; conditions: Homo sapiens, 3D colony formation, continuous exposure 8 to 13 days
Method: as §1, §2, §3, §4

RXF 393L = assay: as above; format: cell-based; conditions: Homo sapiens, 3D colony formation, continuous exposure 8 to 13 days
Method: as §1, §2, §3, §4

RXF 486L = assay: as above; format: cell-based; conditions: Homo sapiens, 3D colony formation, continuous exposure 8 to 13 days
Method: as §1, §2, §3, §4

SN12C = assay: as above; format: cell-based; conditions: Homo sapiens, 3D colony formation, continuous exposure 8 to 13 days
Method: as §1, §2, §3, §4

[1] = tested on: tumor cell lines of renal cancer; assay: In vitro 3D combination study, clonogenic assay, both cell lines; format: cell-based; conditions: Homo sapiens, A498; compound alone, colony formation in soft agar, range over RXF 1183L and RXF A-498; read-out: Relative IC50, single agent
Method: The objective of this study was to assess anti-tumor efficacy of ketorolac in combination with sunitinib in a 5×5 matrix combination format against tumor cell lines of renal cancer using a clonogenic assay with image analysis as read-out.
The clonogenic assay was carried out in a 96 well plate format using ultra low attachment plates. For each test cells were prepared as described above, and assay plates were prepared as follows: each test well contained a layer of semi-solid medium with tumor cells (50 μl), and a second layer of medium supernatant with or without test compounds (100 μl). The cell layer consisted of 3×10^3 to 1×10^4 tumor cells per well, which were seeded in 50 μl/well cell culture medium (IMDM, supplemented with 20% (v/v) fetal calf serum, 0.01% (w/v) gentamicin, and 0.4% (w/v) agar). The soft agar layer was immediately covered with 90 μl of the same culture medium without agar. After 24 h the test compounds were added after serial dilution in IMDM and transfer in cell culture medium, and left on the cells for the duration of the experiment (continuous exposure, 100 μL total drug overlay). Every plate included six untreated control wells and drug-treated groups in a layout as shown above. […] At the time of maximum colony formation, counts were performed with an automatic image analysis system (Celllnsight NXT, Thermo Scientific). […]

A498 cells = assay: In vivo animal efficacy study, subcutaneous A498 tumor fragments; set-up: species or system female athymic nude mice
Method: 10 Healthy female athymic nude mice were recruited for the donor cell inoculation. Animals were subcutaneously injected at flank region with 10 million A498 cells suspended in 200 μl of media and matrigel. Animals were monitored for solid tumor growth. […] Tumors were fragmented in to ˜30 mg size. […] [table] The tumor sizes were measured weekly twice from the date of tumor appearance till the end of the experiment. Tumor size was measured by digital vernier caliper (MITUTOYO) by measuring length (L=longest axis) and width (W=shortest axis). Tumor Volume was calculated using the formula: […] Form the tumor volume data mean tumor volume and % tumor growth inhibition (% TGI) were calculated (SEM=standard error of mean).

[2] = Ketorolac 5 mg/kg p.o. q.d. × 21 (G3), day 1
[3] = Ketorolac 5 mg/kg p.o. q.d. × 21 (G3), day 6
[4] = Ketorolac 5 mg/kg p.o. q.d. × 21 (G3), day 9
[5] = Ketorolac 5 mg/kg p.o. q.d. × 21 (G3), day 13
[6] = Ketorolac 5 mg/kg p.o. q.d. × 21 (G3), day 16
[7] = Ketorolac 10 mg/kg p.o. q.d. × 21 (G4), day 1
[8] = Ketorolac 10 mg/kg p.o. q.d. × 21 (G4), day 6
[9] = Ketorolac 10 mg/kg p.o. q.d. × 21 (G4), day 9
[10] = Ketorolac 10 mg/kg p.o. q.d. × 21 (G4), day 13
[11] = Ketorolac 10 mg/kg p.o. q.d. × 21 (G4), day 16

## O=C(c1ccccc1)c1ccc2n1CCC2C(=O)O (racemic) [Ketorolac, (±)-5-benzoyl-2,3-dihydro-1H-pyrrolizine-1-carboxylic acid]
786-O; read-out: Absolute IC50
  IC50: 3840 µM
786-O; read-out: Relative IC50
  IC50: 4200 µM
A-498 cells; read-out: Absolute IC50
  IC50: 279 µM
A-498 cells; read-out: Relative IC50
  IC50: 279 µM
ACHN; read-out: Absolute IC50
  IC50: 3140 µM
ACHN; read-out: Relative IC50
  IC50: 3250 µM
Caki-1; read-out: Absolute IC50
  IC50: 3680 µM
Caki-1; read-out: Relative IC50
  IC50: 3750 µM
RXF 1183L; read-out: Absolute IC50
  IC50: 1550 µM
RXF 1183L; read-out: Relative IC50
  IC50: 1490 µM
RXF 1220L; read-out: Absolute IC50
  IC50: 1770 µM
RXF 1220L; read-out: Relative IC50
  IC50: 1750 µM
RXF 1781L; read-out: Absolute IC50
  IC50: 1900 µM
RXF 1781L; read-out: Relative IC50
  IC50: 2040 µM
RXF 393L; read-out: Absolute IC50
  IC50: 2830 µM
RXF 393L; read-out: Relative IC50
  IC50: 2730 µM
RXF 486L; read-out: Absolute IC50
  IC50: 2680 µM
RXF 486L; read-out: Relative IC50
  IC50: 2610 µM
SN12C; read-out: Absolute IC50
  IC50: 2590 µM
SN12C; read-out: Relative IC50
  IC50: 2640 µM
[1]
  IC50: 589 to 1760 µM
A498 cells; [2]
  Mean Tumor Volume: 145.65 mm^3
  Tumor Growth Inhibition (% TGI): 1.29%
A498 cells; [3]
  Mean Tumor Volume: 174.13 mm^3
  Tumor Growth Inhibition (% TGI): 47.54%
A498 cells; [4]
  Mean Tumor Volume: 297.42 mm^3
  Tumor Growth Inhibition (% TGI): 35.87%
A498 cells; [5]
  Mean Tumor Volume: 460.01 mm^3
  Tumor Growth Inhibition (% TGI): 25.45%
A498 cells; [6]
  Mean Tumor Volume: 559.69 mm^3
  Tumor Growth Inhibition (% TGI): 41.77%
A498 cells; Ketorolac 5 mg/kg p.o. q.d. × 21 (G3), day 20
  Mean Tumor Volume: 626.62 mm^3
A498 cells; [7]
  Mean Tumor Volume: 145.79 mm^3
  Tumor Growth Inhibition (% TGI): 1.20%
A498 cells; [8]
  Mean Tumor Volume: 168.10 mm^3
  Tumor Growth Inhibition (% TGI): 49.36%
A498 cells; [9]
  Mean Tumor Volume: 223.78 mm^3
  Tumor Growth Inhibition (% TGI): 51.75%
A498 cells; [10]
  Mean Tumor Volume: 215.58 mm^3
  Tumor Growth Inhibition (% TGI): 65.06%
A498 cells; [11]
  Mean Tumor Volume: 300.44 mm^3
  Tumor Growth Inhibition (% TGI): 68.75%
A498 cells; Ketorolac 10 mg/kg p.o. q.d. × 21 (G4), day 20
  Mean Tumor Volume: 336.27 mm^3
